Laboratory results from the supplement of paper PMC7455731.

Assay: collision cross section (DTIM-MS, N2); higher = larger ion
Protocol: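 Collision cross section (CCS) of drug and natural-product chemical standards (validation set 2, measured in this paper). Three independent measurements were made across 2 months; the value taken is their mean (avg_ccs), for the ion adduct given.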

collision cross section (ion adduct: [M+H]+) [Å²] | collision cross section (ion adduct: [M-H]-) [Å²] | Compound
138.93 | – | CC1(C)CCC[C@@]2(C)OC(=O)C=C12
– | 167.91 | COc1cc(/C=C/C(=O)O)cc(OC)c1OC [3,4,5-Trimethoxycinnamic acid]
– | 213.46 | O=C(C=Cc1ccc(O)c(O)c1)OC1CC(O)(C(=O)O)CC(O)C1OC(=O)C=Cc1ccc(O)c(O)c1 (stereo not given) [4,5-Dicaffeoylquinic acid]
136.8 | 135.33 | Cc1cc(=O)oc2cc(O)c(O)cc12 [4-Methyl-6,7-dihydroxycoumarin]
136.89 | 135.28 | Cc1cc(=O)oc2cc(O)cc(O)c12 [5,7-Dihydroxy-4-methylcoumarin]
– | 170.04 | CCCCC[C@H](O)CC(=O)CCc1ccc(O)c(OC)c1 [6-Gingerol]
– | 135.48 | Cc1cc(=O)oc2ccc(O)cc12 [6-Hydroxy-4-methylcoumarin]
129.59 | 129.61 | O=c1ccc2cc(O)ccc2o1 [6-Hydroxycoumarin]
– | 167.21 | CCCCCC=CC(=O)CCc1ccc(O)c(OC)c1 [6-Shogaol]
156.5 | 157.01 | O=c1cc(-c2ccccc2)c2ccc(O)c(O)c2o1 [7,8-Dihydroxy-4-phenylcoumarin]
131.39 | – | COc1ccc2ccc(=O)oc2c1 [7-Methoxycoumarin]
144.57 | – | Cc1cc(=O)oc2c([N+](=O)[O-])c(O)ccc12 [7-hydroxy-4-methyl-8-nitrocoumarin]
– | 178.08 | CCCCCCCC(O)CC(=O)CCc1ccc(O)c(OC)c1 (stereo not given) [8-Gingerol]
– | 208.19 | COC(=O)C1=CO[C@@H](O[C@@H]2O[C@H](CO)[C@@H](O)[C@H](O)[C@H]2O)[C@H]2[C@@H]1[C@H](O)C[C@]2(C)OC(C)=O [8-O-Acetylshanzhiside methyl ester]
– | 188 | CCCCCCCCC[C@H](O)CC(=O)CCc1ccc(O)c(OC)c1 [10-Gingerol]
– | 222.94 | CC(C)=CCC[C@](C)(O)[C@H]1CC[C@]2(C)[C@@H]1[C@H](O)C[C@@H]1[C@@]3(C)CC[C@H](O)C(C)(C)[C@@H]3CC[C@]12C [(20S)-Protopanaxdiol]
174.96 | 185.72 | CC(C)C1=CC2=CC[C@@H]3[C@](C)(CCC[C@@]3(C)C(=O)O)[C@H]2CC1 [Abietic acid]
142.71 | 138.64 | CC(=O)Nc1nnc(S(N)(=O)=O)s1 [Acetazolamide]
– | 133.81 | COc1cc(C(C)=O)ccc1O [Acetovanillone]
149.17 | 148.31 | Nc1nc2c(ncn2COCCO)c(=O)[nH]1 [Aciclovir]
– | 132.47 | OC[C@@H](O)[C@@H](O)[C@@H](O)[C@@H](O)CO [Allitol]
168.73 | 178.13 | O=C(C=CC=Cc1ccccc1)CCc1ccccc1 [Alnustone]
160.76 | – | COc1cc(O)cc2c1C(=O)C[C@@H](c1ccccc1)O2 [Alpinetin]
195.94 | 199.97 | COc1cc(NS(C)(=O)=O)ccc1Nc1c2ccccc2nc2ccccc12 [Amsacrine]

collision cross section (ion adduct: [M+H]+) [Å²] | collision cross section (ion adduct: [M-H]-) [Å²] | Compound
– | 220.58 | COc1ccc(C[C@H]2COC(=O)[C@@H]2Cc2ccc(O[C@@H]3O[C@H](CO)[C@@H](O)[C@H](O)[C@H]3O)c(OC)c2)cc1OC [Arctiin]
– | 185.75 | C[C@H]1[C@H](OC(=O)CCC(=O)O)O[C@@H]2O[C@@]3(C)CC[C@H]4[C@H](C)CC[C@@H]1[C@@]24OO3 [Artesunate]
– | 193.52 | O=C1C(O)=C([C@H]2CC[C@H](c3ccc(Cl)cc3)CC2)C(=O)c2ccccc21 [Atovaquone]
139.92 | – | COc1c2ccoc2cc2oc(=O)ccc12 [Bergapten]
230.49 | 221.44 | COc1ccc(-c2cc(=O)c3c(O)cc(O)cc3o2)cc1-c1c(O)cc(O)c2c(=O)cc(-c3ccc(O)cc3)oc12 [Bilobetin]
– | 169.35 | Oc1c(Cl)cc(Cl)cc1Sc1cc(Cl)cc(Cl)c1O [Bithionol]
207.91 | 200.74 | O=C(Nc1nc(-c2ccc(O)c(O)c2)c(-c2ccccc2)s1)c1ccc(O)c(O)c1 [COH29]
– | 176.94 | O=C(/C=C/c1ccc(O)c(O)c1)OCCc1ccccc1 [Caffeic acid phenethyl ester]
164.02 | 167.35 | COc1cc(O)cc(O)c1C(=O)/C=C/c1ccccc1 [Cardamonin]
– | 166.95 | O=C(N[C@H](CO)[C@H](O)c1ccc([N+](=O)[O-])cc1)C(Cl)Cl [Chloramphenicol]
157.98 | 158.46 | Nc1ccn(C[C@@H](CO)OCP(=O)(O)O)c(=O)n1 [Cidofovir]
158.19 | 162.03 | Nc1nc(Cl)nc2c1ncn2[C@@H]1O[C@H](CO)[C@@H](O)[C@@H]1F [Clofarabine]
124.69 | – | O=c1ccc2ccccc2o1 [Coumarin]
– | 222.53 | CC1(C)CC[C@]2(C(=O)O)CC[C@]3(C)C(=CC[C@@H]4[C@@]5(C)C[C@@H](O)[C@H](O)C(C)(C)[C@@H]5CC[C@]43C)[C@@H]2C1 [Crategolic acid]
– | 280.87 | CC(/C=C/C=C(\C)C(=O)O[C@@H]1O[C@H](CO)[C@@H](O)[C@H](O)[C@H]1O)=C\C=C\C=C(C)\C=C\C=C(/C)C(=O)O[C@@H]1O[C@H](CO[C@@H]2O[C@H](CO)[C@@H](O)[C@H](O)[C@H]2O)[C@@H](O)[C@@H](O)[C@H]1O [Crocin II]
– | 310.8 | CC(/C=C/C=C(\C)C(=O)O[C@@H]1O[C@H](CO[C@@H]2O[C@H](CO)[C@@H](O)[C@H](O)[C@H]2O)[C@@H](O)[C@H](O)[C@H]1O)=C\C=C\C=C(C)\C=C\C=C(/C)C(=O)O[C@@H]1O[C@H](CO[C@@H]2O[C@H](CO)[C@@H](O)[C@H](O)[C@H]2O)[C@@H](O)[C@H](O)[C@H]1O [Crocin]
– | 151.89 | Nc1ccn([C@@H]2O[C@H](CO)[C@@H](O)[C@@H]2O)c(=O)n1 [Cytarabine]
248.03 | 259.6 | COc1cc2c(cc1OC)C(Cc1ccc(Oc3cc(CC4c5cc(OC)c(OC)cc5CCN4C)ccc3O)cc1)N(C)CC2 (stereo not given) [Dauricine]
185.63 | 180.82 | CC(C)=CC(=O)OC1Cc2cc3ccc(=O)oc3cc2OC1(C)C (stereo not given) [Decursin]
196.5 | 198.36 | COc1cc2c(cc1OC)[C@@H]1C(=O)c3ccc4c(c3O[C@@H]1CO2)C=CC(C)(C)O4 [Deguelin]
193.33 | – | COc1cc(C=CC(=O)CC(=O)C=Cc2ccc(O)cc2)ccc1O [Demethoxycurcumin]
127.62 | – | Cc1ncc([N+](=O)[O-])n1C [Dimetridazole]
209.65 | – | C[C@H]1CC[C@]2(OC1)O[C@H]1C[C@H]3[C@@H]4CC=C5C[C@@H](O)CC[C@]5(C)[C@H]4CC[C@]3(C)[C@H]1[C@@H]2C [Diosgenin]
167.45 | 171.54 | COc1cc(O)ccc1/C=C/C(=O)c1ccc(O)cc1 [Echinatin]

Compound | collision cross section (ion adduct: [M+H]+) [Å²] | collision cross section (ion adduct: [M-H]-) [Å²]
COc1cc(C2c3cc4c(cc3C(O)C3COC(=O)C23)OCO4)cc(OC)c1O (stereo not given) [4'-Demethylpodophyllotoxin] | 195.99 | 197.38
CC(C)(C)[C@]1(O)C[C@@H]2OC(=O)C[C@@]23C(=O)O[C@@H]2OC(=O)[C@H](O)[C@]213 [(-)-Bilobalide] | – | 162.4
C=CC[C@]1(O)CC[C@H]2[C@@H]3CCC4=CC(=O)CCC4=C3C=C[C@@]21C [Altrenogest] | 178.86 | 180.56
N#C[C@H](O[C@@H]1O[C@H](CO[C@@H]2O[C@H](CO)[C@@H](O)[C@H](O)[C@H]2O)[C@@H](O)[C@H](O)[C@H]1O)c1ccccc1 [Amygdalin] | 214.69 | 205.69
COc1ccc(C[C@H]2NC[C@H](O)[C@H]2OC(C)=O)cc1 [Anisomycin] | 164.18 | –
O=C(Nc1ccccc1)c1ccccc1I [Benodanil] | 152.62 | 156.05
CNC(=O)Oc1cccc2ccccc12 [Carbaryl] | – | 144.36
COC(=O)Nc1nc2ccccc2[nH]1 [Carbendazim] | 138.81 | –
C[C@H]1C(=O)O[C@@H]2CCN3CC=C(COC(=O)[C@](C)(O)[C@]1(C)O)[C@H]23 [Crotaline] | 176.34 | –
Nc1nc(N)nc(NC2CC2)n1 [Cyromazine] | 135.92 | –
CCCCCCCCOC(=O)c1ccccc1C(=O)OCCCCCCCC [DI-N-OCTYL PHTHALATE] | 211 | –
CN(C)NC(=O)CCC(=O)O [Daminozide] | – | 135.88
COC1=CC(=O)O[C@@H](CCc2ccccc2)C1 [Dihydrokavain] | 149.11 | –
C[C@H]1CC[C@]2(OC1)O[C@H]1C[C@H]3[C@@H]4CC=C5C[C@@H](O[C@@H]6O[C@H](CO)[C@@H](O[C@@H]7O[C@@H](C)[C@H](O)[C@@H](O)[C@H]7O)[C@H](O)[C@H]6O[C@@H]6O[C@@H](C)[C@H](O)[C@@H](O)[C@H]6O)CC[C@]5(C)[C@H]4CC[C@]3(C)[C@H]1[C@@H]2C [Dioscin] | 330.49 | 324.15
